Measured values as given in patent publication US10751390B2, “Lipidated peptides as neuroprotective agents” (USTAV ORGANICKE CHEMIE A BIOCHEMIE AV CR, V.V.I., priority 2014, dated 2020).

Legend:
Assay type in all cases: in vivo
[1] = test system: Tau protein; assay: Western blot of Tau phosphorylation in hippocampi of 6-month-old MSG mice after 14-day treatment; conditions: 14 days SC twice a day, liraglutide 0.2 mg/kg, vs saline
Description: (§1) Groups of MSG mice (n=10 animals per group) were for 14 days SC administered with liraglutide at a dose 0.2 mg/kg, or palmitoylated analog of PrRP31 at a dose 5 mg/kg, or palmitoylated analog with PrRP31 with dichlorophenylalanin in position 31 at a dose 5 mg/kg dissolved in saline, twice a day, at 8 a.m. and 6:00 p.m. Control mice (n=10 animals per group), NMRI and MSG, were injected in the same manner with saline (the volume was always 0.2 ml/mouse).
(§2) Overnight (15 hours) fasted mice with ad libitum access to water were weighed, and their plasma glucose concentration was measured using Glucocard glucometer. After decapitation, the brains were dissected on ice, and cut between hemispheres. For immunohistochemical staining the half of the brain was fixed for 24 hours in 4% paraformaldehyde and dehydrated in 70% ethanol, afterward. For the western blot (WB) analysis, the hippocampus was dissected from the second half of the brain, and lysed in cold lysis buffer (62.5 mmol·l^−1 Tris-HCl, pH 6.8 with 1% sodium deoxycholate, 1% Triton X-100 Complete, 50 mmol·l^−1 NaF, 1 mmol·l^−1 Na3VO4), homogenized, sonicated 10 minutes and stored at −20° C. The blood plasma was prepared, and stored at −20° C.
(§3) In homogenized hippocampi the protein level was measured using BCA kit (Pierce, Thermo Fisher Scientific, Rockfor, Ill., USA), then the samples were diluted in sample buffer (62.5 mmol/l Tris-HCl pH 6.8, 10% glycerol, 2% SDS, 0.01% bromfenol blue, 5% merkaptoethanol, 50 mmol/l NaF and 1 mmol/l Na3VO4) to final concentration […]. WB method and analysis of the results were performed according Nagelová et al. (Nagelova et al., 2014).

[2] = test system: Tau protein; assay: Immunohistochemical fluorescent double staining of Tau phosphorylation in CA1 region of hippocampi of MSG mice; conditions: 6-month-old MSG mice, 14 days SC twice a day; liraglutide 0.2 mg/kg, PrRP31 analog 5 mg/kg; epitopes Thr212 and Ser202/Thr205
Description: as §1, §2
To verify the results obtained from WB analysis the immunohistochemical staining was performed. Ten micrometer (10 μm) thick sections were prepared at INSERM, Lille, France. […]

[3] = test system: insulin signaling cascade (PDK-1, Akt, GSK-3β); assay: Western blot of insulin signaling cascade in hippocampi of 6-month-old MSG mice after 14-day treatment; conditions: 14 days SC twice a day, liraglutide 0.2 mg/kg, vs saline
Description: as §1, §2, §3

## (N-palm)SRTHRHSMEIRTPDINPAWYASRGIRPVGRF-NH2 [palmitoylated analog of PrRP31]
[1]; PrRP31 analog 5 mg/kg
  not-phosphorylated Tau (antibody Tau1): did not show any significant differences among groups
[1]; PrRP31 analogs 5 mg/kg
  phosphorylation of Tau protein at epitope Ser396: decreased phosphorylation
  phosphorylation of Tau protein at epitope Thr212: decreased phosphorylation
  phosphorylation of Tau protein at epitope Thr231: decreased phosphorylation
[2]
  Tau phosphorylation in hippocampal region CA1 (fluorescent signal): decreased
[3]; PrRP31 analog 5 mg/kg
  phosphorylation of Akt (Thr308): more pronounced phosphorylation
[3]; PrRP31 analogs 5 mg/kg
  activation of kinases implicated in insulin signaling cascade: Enhanced activation
  phosphorylation of GSK-3β (Ser9): more pronounced phosphorylation
